In general, EC50 refers to the concentration giving half of the maximal effect. A word on the CC50: it is the concentration giving 50% cytotoxicity. A word on the AC50: it is the concentration giving half of the maximal activity seen. What is called GI50 is the concentration giving 50% growth inhibition.

The text below walks through data of ChEMBL document CHEMBL1201862, “PubChem BioAssay data set” (2004).

In experiment [1] the target is T1, Heat shock factor protein 1 (Mus musculus, UniProt P38532).
T1 sequence (P38532 whole entry): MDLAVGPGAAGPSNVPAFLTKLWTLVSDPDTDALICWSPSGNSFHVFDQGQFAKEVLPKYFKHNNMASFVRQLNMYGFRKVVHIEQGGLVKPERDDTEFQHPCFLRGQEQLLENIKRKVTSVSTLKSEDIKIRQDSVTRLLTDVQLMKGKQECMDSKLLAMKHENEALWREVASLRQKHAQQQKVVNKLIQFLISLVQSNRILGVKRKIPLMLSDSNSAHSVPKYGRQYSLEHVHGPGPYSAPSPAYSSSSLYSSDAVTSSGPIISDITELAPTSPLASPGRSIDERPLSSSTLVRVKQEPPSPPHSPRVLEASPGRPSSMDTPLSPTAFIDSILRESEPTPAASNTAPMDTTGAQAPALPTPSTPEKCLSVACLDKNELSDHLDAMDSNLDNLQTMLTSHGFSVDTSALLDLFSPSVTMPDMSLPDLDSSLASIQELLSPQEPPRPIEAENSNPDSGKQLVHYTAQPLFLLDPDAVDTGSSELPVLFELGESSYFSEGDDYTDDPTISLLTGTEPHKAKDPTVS
Put plainly: HSF1 potentiators in luciferase reporter cells, confirmation, cell-based, NIH3T3, luminescence, dose retest (AID 435004).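 Also: stress induced by proteasome inhibitor MG132 added 30 min after compound; luciferase reporter driven by HSF1 response element in NIH3T3 cells; actives raise luminescence as potentiators of the MG132 stress response.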 It counts as functional.

For a further experiment, the system named is Vero. Put plainly: cells. The settings on record: Chlorocebus sabaeus. It counts as functional.
The nature of experiment [2]: Luminescence Cell-Based Dose Confirmation HTS to Identify Activators of 5'UTR Stem-Loop Driven Alpha-Synuclein mRNA Translation in H4 Neuroglioblastoma Cells. [Related pubchem assays: 1829 (Project Summary), 1814 (Primary HTS)]. It counts as functional.
Experiment [3] is described as follows: Luminescence Cell-Based Dose Response HTS to Identify Activators of Luciferase Translation or Activity in H4 […] Cells. [Related pubchem assays: 1829 (Project Summary), 1814 (Primary HTS)]. It counts as functional.
In the next experiment the test system is H4. The experiment can be described thus: Luminescence Cell-Based Dose Response HTS to Identify Activators of 5'UTR Stem-Loop Driven Prion Protein mRNA Translation in H4 Neuroglioblastoma Cells. [Related pubchem assays: 1829 (Project Summary), 1814 (Primary HTS)]. The settings on record: Homo sapiens. It counts as functional.
The target of experiment [4] is T1, Heat shock factor protein 1. The experiment can be described thus: inhibition of MG132-induced HSE-luciferase signal, confirmation, cell-based, NIH3T3, luminescence, dose retest (AID 2382).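 Also: NIH3T3 fibroblasts with HSF1-driven luciferase reporter stressed by proteasome inhibitor MG132; luminescence from HSF1-driven luciferase expression after 8 hours of MG132 stress.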 It counts as functional.
In experiment [5] the target is Luciferin 4-monooxygenase (Photinus pyralis, UniProt P08659). The experiment can be described thus: firefly luciferase enzyme inhibitors, dose response, biochemical, luminescence (AID 1891).
Sequence of Luciferin 4-monooxygenase (P08659 whole entry): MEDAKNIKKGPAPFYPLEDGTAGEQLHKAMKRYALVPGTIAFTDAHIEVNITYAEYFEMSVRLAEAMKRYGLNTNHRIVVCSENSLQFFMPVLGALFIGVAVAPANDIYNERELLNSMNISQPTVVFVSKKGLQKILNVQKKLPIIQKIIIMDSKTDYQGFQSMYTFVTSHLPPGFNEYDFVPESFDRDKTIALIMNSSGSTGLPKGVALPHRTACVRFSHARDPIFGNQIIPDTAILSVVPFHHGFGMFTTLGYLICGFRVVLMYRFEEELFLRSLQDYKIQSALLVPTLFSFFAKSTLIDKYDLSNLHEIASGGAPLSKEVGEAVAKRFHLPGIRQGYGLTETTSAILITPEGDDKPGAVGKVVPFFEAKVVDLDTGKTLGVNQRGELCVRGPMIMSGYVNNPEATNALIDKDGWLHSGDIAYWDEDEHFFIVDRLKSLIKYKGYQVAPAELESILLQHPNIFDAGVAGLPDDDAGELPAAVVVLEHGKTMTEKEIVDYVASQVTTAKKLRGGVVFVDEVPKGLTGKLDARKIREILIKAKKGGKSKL
A short description of experiment [6]: Luminescence Cell-Based Dose Confirmation HTS to Identify Inhibitors of Platelet Dense Granule Release. [Related pubchem assays: 1663 (Primary HTS), 1678 (Summary of Project)]. It counts as functional.
The target of experiment [7] is T2, Microphthalmia-associated transcription factor (Homo sapiens, UniProt O75030).
T2 sequence (O75030 whole entry): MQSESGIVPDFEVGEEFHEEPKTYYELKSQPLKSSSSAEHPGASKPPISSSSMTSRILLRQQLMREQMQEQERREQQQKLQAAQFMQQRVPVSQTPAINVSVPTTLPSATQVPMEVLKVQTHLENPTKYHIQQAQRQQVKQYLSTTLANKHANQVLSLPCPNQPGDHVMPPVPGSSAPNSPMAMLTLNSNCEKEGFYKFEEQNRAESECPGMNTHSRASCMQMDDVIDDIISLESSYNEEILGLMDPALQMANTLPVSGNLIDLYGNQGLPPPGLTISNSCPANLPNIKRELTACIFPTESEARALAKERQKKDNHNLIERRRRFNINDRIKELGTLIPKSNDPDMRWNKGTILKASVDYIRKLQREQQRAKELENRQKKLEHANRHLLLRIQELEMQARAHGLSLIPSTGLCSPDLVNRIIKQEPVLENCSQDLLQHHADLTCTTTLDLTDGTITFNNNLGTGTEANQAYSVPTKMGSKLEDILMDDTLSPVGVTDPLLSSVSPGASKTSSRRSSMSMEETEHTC
Put plainly: TRPM1 promoter luciferase signal decrease, dose response, MITF inhibitor project, cell-based, SK-MEL-5, cherry-picked, set 3 (AID 493073).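 Also: SK-MEL-5 melanoma cells with luciferase driven by the MITF target TRPM1 promoter.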 It counts as functional.

A further experiment concerns INS1. Put plainly: beta cell apoptosis inhibitors, cytokine rescue, dose response, luminescence, retest (AID 449756).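 Also: cell death triggered by IL-1 beta plus TNF-alpha plus IFN-gamma mixture; protective hits raise ATP signal compared with cytokine alone wells.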 It counts as functional, cell-based. The conditions noted are these: Rattus norvegicus.
In a further experiment the test system is P388/ADR. Put plainly: cells. The settings on record: Mus musculus. It counts as functional.
For another experiment, the system named is SN12K1. Put plainly: cells. It counts as functional. The conditions noted are these: Homo sapiens.
For the next experiment, the system named is P388. The experiment can be described thus: cells. It counts as functional. The conditions noted are these: Mus musculus.

Counter-ions that a name gives are not always drawn. Calls of active or inactive are those of the source. Rule as the data show it, for most assays here: actives have a measured EC50 and inactives only a lower limit. Non-standard residues stand in square brackets, D forms with d. Residues, ends and D or L forms follow the SMILES beside them. ξ: configuration not given here. Pen = CC(C)(S)[C@H](N)C(=O)O; ξL = CC(C)CC(N)C(=O)O

`O=C(CSc1nc2nccnc2c(=O)n1Cc1cccs1)Nc1ccccc1F`: the EC50 in [1] is > 260 µM (inactive).

Turning to `COc1ccc(OC)c(C(=O)/C=C/c2cccnc2)c1`, in the experiment with Vero, the CC50 was 17 µM (active).

With `CC1=Nc2cc(C(=O)NCC3CCCO3)ccc2Sc2ccc(Br)cc21` (stereo unspecified), the EC50 in [2] was > 120 µM (not active); in experiment [3], > 120 µM (not active); in the experiment on H4, 17.8 µM (active); in experiment [4], > 195 µM (not active).

`CCOc1cccc2c1OC(c1cc(OC)c(OC)c(OC)c1)N1N=C(c3ccc(C)o3)CC21` (stereo unspecified): the concentration giving a half-maximal response (EC50) was 32 µM (active) in [2], 28.3 µM (active) in [3] and 8.82 µM (active) in the experiment with H4.

As for `CSc1nc(NC(C)(C)C)nc(Oc2ccc(O)nn2)n1`, the EC50 in [1] is > 260 µM (inactive).

Consider `COc1cc2cc(CN(CCO)S(=O)(=O)c3ccccc3Cl)c(O)nc2cc1OC`, for which the EC50 in [5] and in experiment [6] was > 112 µM (not active) in each case.

In the case of `Oc1nc2cc3c(cc2cc1CN(CCc1ccccc1)Cc1nnnn1C1CCCC1)OCCO3`, the concentration for a half-maximal effect (EC50) in [5] and in experiment [6] was > 112 µM (not active) each time.

On to `c1ccc(C[n+]2cccc3c4ccccc4ccc32)cc1`, for which the AC50 in experiment [7] is 3.41 µM (active).

Turning to `CN1CCN(CC(=O)N(C)c2nc(-c3ccccc3)cs2)CC1`, the EC50 in experiment [2] was 1.12 µM (active); in experiment [3] it was 1.22 µM (active).

On to `CCOC(=O)c1c(NC(=O)CSc2nc3ccccc3o2)sc(C)c1C`, for which the EC50 in experiment [1] is > 260 µM (inactive).

Take `CCc1ccc(S(=O)(=O)NCCc2cn3ccsc3n2)s1`: the EC50 in experiment [5] and in experiment [6] was > 112 µM (not active) throughout.

On to `CCOC(=O)c1cc(-c2ccccc2)nn1Cc1cc(CC)no1`, for which the concentration for a half-maximal effect (EC50) in experiment [2] is 12.4 µM (active); in [3] it was 7.3 µM (active); with H4 it was 89.1 µM (active).

Consider `COc1ccc(NC(=O)c2cc(S(=O)(=O)N3CCc4ccccc43)cn2C)cc1OC`, for which the EC50 in [5] and in [6] was > 112 µM (not active) in each case.

Turning to `COc1ccccc1CNC(=O)c1ccc(NS(=O)(=O)c2cccs2)cc1`, the EC50 in [1] was > 260 µM (inactive).

On to `CCn1c(=O)cc(N2CCN(Cc3ccccc3)CC2)[nH]c1=O`, for which the EC50 in [5] and in experiment [6] was > 112 µM (not active) in each case.

Regarding `COc1cccc(NC(=O)CSc2nc3c4ccccc4nc-3c(O)n2C)c1`, in experiment [1], the EC50 was > 260 µM (inactive).

For the compound `Cc1ccc(C(=O)N/C(=C\c2ccc(-c3cccc([N+](=O)[O-])c3)o2)C(=O)NCCCN2CCOCC2)cc1`, in the experiment with Vero, the CC50 was > 25 µM (active).

For `COc1ccc(N2CCN(CC(=O)c3ccc(O)cc3O)CC2)cc1`, the EC50 in experiment [5] and in [6] was > 112 µM (not active) each time.

Regarding `c1ccc(C(c2ccccc2)N2CCN(Cc3nnnn3C3CCCC3)CC2)cc1`, the 50% effective concentration (EC50) in experiment [5] and in experiment [6] was > 112 µM (not active) each time.

Turning to `O=C(Nc1ccc(N2CCOCC2)cc1)c1nc2ccccc2s1`, the EC50 in [5] is 16.4 µM (active); in experiment [6], 5.93 µM (active).

As for `COc1cc(C)c(S(=O)(=O)N2CCN=C2c2ccccc2)cc1C`, the EC50 in experiment [1] is > 260 µM (inactive).

As for `O=C(Cn1ncc(N2CCOCC2)c(Br)c1=O)c1ccc(Cl)cc1`, the results for the EC50 (in experiment [2]; in experiment [3]; in the experiment on H4) were > 120 µM (not active), 7.93 µM (active) and 17 µM (active), respectively.

`CCCN1CCC(=O)N([C@H](CSc2ccc(C)cc2)c2ccccc2)CC1`: the EC50 in [2] was 8.36 µM (active); in [3] it was 5.58 µM (active); with H4, 7.04 µM (active).

For `CCN1CCc2c(sc(NC(=O)c3ccc(S(=O)(=O)N4CCCCCC4)cc3)c2C(=O)NC)C1`, the AC50 in experiment [7] was 16.6 µM (active).

With `CN1/C(=C\C(=O)C[n+]2cccc(Br)c2)C(C)(C)c2ccccc21`, the AC50 with INS1 was 5.62 µM (active).

Consider `CN1N=C(C(=O)N2CCc3c([nH]c4ccccc34)C2c2ccccc2Cl)CCC1=O` (stereo unspecified), for which the EC50 was 13.2 µM (active) in [2], 10.8 µM (active) in experiment [3] and 9.56 µM (active) in the experiment with H4.

`Cc1ccccc1C(=O)NCCOc1ccccc1Cl`: the EC50 in experiment [1] was 25.5 µM (active).

Regarding `NC(=O)c1ccc(NC(=O)CC23CC4CC(CC(Br)(C4)C2)C3)cc1`, the EC50 in experiment [1] was > 260 µM (inactive).

Turning to `CCOC(=O)CC1(C)NC(C(=O)O)C(C)(C)S1` (stereo unspecified), the CC50 with Vero was > 25 µM (active).

As for `Cc1ccc(N2C(=O)CCC2(C#N)c2ccccc2)cc1` (stereo unspecified), the EC50 in experiment [1] was > 260 µM (inactive).

For `O=C1NC(=S)NC(=O)C1=Cc1c[nH]c2ccccc12`, the CC50 in the experiment on Vero is > 25 µM (active).

On to `Cc1ccccc1N(C(=O)c1csnn1)C(C(=O)NC(C)(C)C)c1ccncc1` (stereo unspecified), for which the EC50 in experiment [1] is > 260 µM (inactive).

Consider `CCCCCCSc1nc(N)nc2nc[nH]c12`, for which the GI50 with P388/ADR is 12.7 µM (inactive); with SN12K1, 38.7 µM (inactive); with P388, > 40.8 µM (inactive).

As to `c1ccc2c(c1)SCCc1cn[nH]c1-2`, the GI50 in the experiment on P388/ADR, in the experiment with SN12K1 and in the experiment with P388 was > 100 µM (inactive) each time.

With `Cc1ccccc1C(=O)O/N=C1\CCS(=O)(=O)c2sccc21`, the EC50 in [1] is 0.943 µM (active).

Regarding `CC(C)(C)c1cccc(/C=N/O)c1O`, the EC50 in [1] is > 260 µM (inactive).

With `CCOC(=O)C(C)/C(C)=N/NC(=O)c1cc2ccccc2cc1O` (stereo unspecified), in the experiment on INS1, the AC50 is 14.8 µM (active).

For the compound `CSCC[C@H](NC(=O)C(CC(C)C)NC(=O)[C@H](Cc1c[nH]cn1)NC(=O)CNC(=O)[C@@H](NC(=O)[C@@H](C)NC(=O)[C@H](Cc1c[nH]c2ccccc12)NC(=O)[C@H](CCC(N)=O)NC(=O)[C@@H](N)CC(N)=O)C(C)(C)SC)C(N)=O` (stereo partly specified) (H-NQW[dA][Pen](Me)GH[ξL]M-NH2), the GI50 in the experiment on P388/ADR, in the experiment on SN12K1 and in the experiment with P388 was > 100 µM (inactive) each time.

Regarding `O=C1CN2Cc3c(ccc(Cl)c3Cl)N=C2N1` [ANAGRELIDE HYDROCHLORIDE], the EC50 in experiment [5] is > 112 µM (not active); in [6], 0.722 µM (active).

Consider `NCCCC(N)(C(=O)O)C(F)F` (stereo unspecified) [EFLORNITHINE], for which the GI50 in the experiment with P388/ADR is > 1840 µM (inactive); in the experiment on SN12K1, 1400 µM (inactive); with P388 it was 275 µM (inactive).
